Read-outs that look alike come from different tables or passages of the source.
Key:
MV4-11 cells = experiment: MV4-11 Cell Cytotoxicity Assay; type: cell-based, human; conditions: 72 h incubation, CellTiter-Blue, read-out: IC50-MV-4-11
Protocol: In some embodiments, the potency of the STAT5 inhibitors are evaluated by an in vitro assay such as MV4-11 Cell Cytotoxicity Assay. MV4-11 cells were grown in Iscove's Modified Dulbecco's Medium (IMDM) supplemented with 10% fetal bovine serum (FBS). 10,000 cells were plated per well in 96-well flat-bottom sterile culture plates with low-evaporation lids. After 24 h, inhibitors and a vehicle control (0.5% DMSO) were added and the cells were incubated for 72 h at 37° C. in 5% CO2. Inhibitors were examined in triplicate at a maximal concentration of 50 μM, followed by 1:2 dilutions in subsequent wells (25, 12.5, 6.25, 3.125, 1.5625, 0.78125, 0.390625, 0.195313 and 0.097656 μM). After 72 h, the wells were treated with CellTiter-Blue® (20 μL/well), and the plates were incubated using standard cell culture conditions for 1 hour. Fluorescence was measured at 560/590 nm.

glutathione (GSH) = experiment: Reactivity Profiling with Glutathione (GSH); type: in vitro ADME; conditions: cell culture medium (IMDM, 10% FBS) with 5 mM glutathione, 25 μM inhibitor, IMDM with 10% FBS, 0.5% DMSO, 25° C., HPLC, read-out: T1/2-GSH
Protocol: In some embodiments, metabolic stability of the compounds is evaluated according to their reactivity profiles with GSH.
3.5 μL of 5 mM stocking solution of the inhibitors in DMSO was added to 697.5 μL of Iscove's Modified Dulbecco's Medium (IMDM) supplemented with 10% FBS and antibiotic antimycotic solution, with 5 mM glutathione to afford a final concentration of 25 μM inhibitor with 0.5% DMSO. The solution was then immediately placed in the sample tray at 25° C. Sample was analyzed at pre-defined intervals, typically every 1.5 hours, for up to four injections, by HPLC, included at time zero, without further pre-treatment. For each inhibitor, its peak is integrated at different time points and compared to the time zero injection in order to obtain a percentage remaining. Half-life is calculated according to a first order reaction kinetic taking into account those time points for which remaining percentage of inhibitor is above 40%, using the formula: t½=Ln(2)/k, where k is the slope of the linear plot of Ln[Inhibitor] vs time, according to the formula: Ln[A]=Ln[A]0−kt, where [A] is the value resulting from the integration at each time point, [A]0 the value at time zero, and t the time. For each inhibitor, both replicates are averaged and the resulting t½ reported. Selective reactivity against GSH in particular is confirmed by incubation of the inhibitor in the same solution without the presence of GSH, and single analysis after a time longer than the latest time point analyzed for the samples with GSH.

For `CC(C)C[C@H](C(=O)N(Cc1cc(C2CC2)cc(C(C)(C)C)c1)c1ccc(C(=O)O)c(O)c1)N(Cc1ccc(Cl)cc1)S(=O)(=O)c1c(F)c(F)c(F)c(F)c1F` [Compound 1001, (R)-4-(N-(3-(tert-butyl)-5-cyclopropylbenzyl)-2-(N-(4-chlorobenzyl)-(2,3,4,5,6-pentafluorophenyl)sulfonamido)-4-methylpentanamido)-2-hydroxybenzoic acid], which IC50 (MV4-11 cells) is on record?
The IC50 was 1e-05 to 5 µM.

How did the IC50 (MV4-11 cells; Homo sapiens, MV4-11, 72 h) turn out when `C[C@@H](C(=O)N(Cc1cc(C2CC2)cc(C(C)(C)C)c1)c1ccc(C(=O)O)c(O)c1)N(Cc1ccc(Cl)cc1)S(=O)(=O)c1c(F)c(F)c(F)c(F)c1F` [Compound 1002, (S)-4-(N-(3-(tert-butyl)-5-cyclopropylbenzyl)-2-(N-(4-chlorobenzyl)-(2,3,4,5,6-pentafluorophenyl)sulfonamido)propanamido)-2-hydroxybenzoic acid] was run?
Its IC50 is 1e-05 to 5 µM.

For `CC(C)[C@@H](C(=O)N(Cc1cc(C2CC2)cc(C(C)(C)C)c1)c1ccc(C(=O)O)c(O)c1)N(Cc1ccc(Cl)cc1)S(=O)(=O)c1c(F)c(F)c(F)c(F)c1F` [Compound 1003, (S)-4-(N-(3-(tert-butyl)-5-cyclopropylbenzyl)-2-(N-(4-chlorobenzyl)-(2,3,4,5,6-pentafluorophenyl)sulfonamido)-3-methylbutanamido)-2-hydroxybenzoic acid], which IC50 (MV4-11 cells; Homo sapiens, MV4-11, 72 h) is on record?
Its IC50 is 1e-05 to 5 µM.

With `C[C@H](C(=O)N(Cc1cc(C2CC2)cc(C(C)(C)C)c1)c1ccc(C(=O)O)c(O)c1)N(Cc1ccc(Cl)cc1)S(=O)(=O)c1c(F)c(F)c(F)c(F)c1F` [Compound 1004, (R)-4-(N-(3-(tert-butyl)-5-cyclopropylbenzyl)-2-(N-(4-chlorobenzyl)-(2,3,4,5,6-pentafluorophenyl)sulfonamido)propanamido)-2-hydroxybenzoic acid] as the compound, how does the IC50 (MV4-11 cells; Homo sapiens, MV4-11, 72 h) read?
The IC50 was 5 to 10 µM.

For `CC(C)C[C@H](C(=O)N(Cc1cc(C2CC2)cc(C(C)(C)C)c1)c1ccc(C(=O)O)c(O)c1)N(Cc1ccc(Cl)cc1)S(=O)(=O)c1c(F)c(F)c(F)c(F)c1F` [Compound 1005, (R)-4-(N-(3-(tert-butyl)-5-cyclopropylbenzyl)-2-(N-(4-chlorobenzyl)-(2,3,4,5,6-pentafluorophenyl)sulfonamido)-4-methylpentanamido)-2-hydroxybenzoic acid], which IC50 (MV4-11 cells) is on record?
The IC50 was 5 to 10 µM.

Which half-life at 25 μM (glutathione (GSH)) does the source give for `C[C@@H](C(=O)N(Cc1cc(C2CC2)cc(C2CC2)c1)c1ccc(C(=O)O)cc1OC1CC1)N(Cc1ccc(F)cc1Cl)S(=O)(=O)c1c(F)c(F)c(F)c(F)c1F` [Compound 1006, (S)-4-(2-(N-(2-chloro-4-fluorobenzyl)-(2,3,4,5,6-pentafluorophenyl)sulfonamido)-N-(3,5-dicyclopropylbenzyl)propanamido)-3-cyclopropoxybenzoic acid] here?
Its half-life at 25 μM is 2.37 to 9.23 h.

How did the half-life at 25 μM (glutathione (GSH)) turn out when `C[C@@H](C(=O)N(Cc1cc(C2CC2)cc(N2CCCC2)c1)c1ccc(C(=O)O)cc1C1CC1)N(Cc1ccc(F)cc1Cl)S(=O)(=O)c1c(F)c(F)c(F)c(F)c1F` [Compound 1008, (S)-4-(2-(N-(2-chloro-4-fluorobenzyl)-(2,3,4,5,6-pentafluorophenyl)sulfonamido)-N-(3-cyclopropyl-5-(pyrrolidin-1-yl)benzyl)propan-amido)-3-cyclopropylbenzoic acid] was run?
Its half-life at 25 μM is 2.37 to 9.23 h.

`C[C@H](C(=O)N(Cc1cc(C2CC2)cc(N2CCCC2)c1)c1ccc(C(=O)O)cc1C1CC1)N(Cc1ccc(F)cc1Cl)S(=O)(=O)c1c(F)c(F)c(F)c(F)c1F` [Compound 1009, (R)-4-(2-(N-(2-chloro-4-fluorobenzyl)-(2,3,4,5,6-pentafluorophenyl)sulfonamido)-N-(3-cyclopropyl-5-(pyrrolidin-l-yl)benzyl)propan-amido)-3-cyclopropylbenzoic acid] was tested. Which half-life at 25 μM (glutathione (GSH)) did it give?
Its half-life at 25 μM is 9.23 to 1670 h.
